# From patent US20230096028A1, “BICYCLIC HETEROCYCLYL COMPOUNDS AND USES THEREOF” (Revolution Medicines, Inc., priority 2019, published 2023)
# Like-named read-outs stand apart in the source and are kept apart here.
# Columns and labels:
# [1] = target: T1, SOS1 catalytic domain (residues 564-1049) (Homo sapiens, UniProt Q07889); experiment: Mode of Action Assay: inhibition of SOS1 nucleotide exchange activity (SOS1 TR-FRET IC50 Assay)
# T1 sequence (Q07889 564-1049): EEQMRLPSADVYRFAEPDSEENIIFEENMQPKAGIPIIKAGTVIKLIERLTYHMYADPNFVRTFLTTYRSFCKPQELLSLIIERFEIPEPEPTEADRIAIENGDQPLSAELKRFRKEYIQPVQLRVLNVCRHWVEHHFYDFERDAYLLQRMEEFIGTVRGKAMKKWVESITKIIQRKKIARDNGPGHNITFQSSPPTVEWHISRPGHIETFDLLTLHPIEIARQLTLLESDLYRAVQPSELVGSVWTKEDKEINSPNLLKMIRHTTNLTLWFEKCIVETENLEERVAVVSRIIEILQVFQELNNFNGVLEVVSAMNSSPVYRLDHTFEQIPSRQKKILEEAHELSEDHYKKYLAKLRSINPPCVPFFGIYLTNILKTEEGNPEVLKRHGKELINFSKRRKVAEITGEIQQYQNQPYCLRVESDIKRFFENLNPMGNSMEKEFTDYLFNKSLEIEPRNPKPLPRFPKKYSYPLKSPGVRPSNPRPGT
# [2] = test system: PC-9 cells (EGFR Ex19Del); experiment: Potency Assay: pERK (SOS1 pERK IC50 Assay, AlphaLISA SureFire Ultra p-ERK1/2); type: cell-based; details: Homo sapiens, read-out: SOS1 pERK IC50
# Procedure: The purpose of this assay is to measure the ability of test compounds to inhibit SOS1 function in cells. SOS1 activates RAS proteins by catalyzing the conversion of RAS GDP to RAS GTP in response to receptor tyrosine kinase activation. […] The procedure described below measures the level of cellular pERK in response to test compounds in PC-9 cells (EGFR Ex19Del).
# PC-9 cells were grown and maintained using media and procedures recommended by the ATCC. On the day prior to compound addition, cells were plated in 384-well cell culture plates (40 μL/well) and grown overnight in a 37° C., 5% CO2 incubator. Test compounds were prepared in 10, 3-fold dilutions in DMSO, with a top concentration of 10 mM. On the day of the assay, 40 nL of test compound was added to each well of cell culture plate using an Echo550 liquid handler (LabCyte). Concentrations of test compound were tested in duplicate with highest test concentration being 10 μM. After compound addition, cells were incubated for 1 hour at 37° C., 5% CO2. Following incubation, culture medium was removed and cells were washed once with phosphate buffered saline.
# Cellular pERK level was determined using the AlphaLISA SureFire Ultra p-ERK1/2 Assay Kit (PerkinElmer). Cells were lysed in 25 μL lysis buffer, with shaking at 600 RPM at room temperature for 15 minutes. Lysate (10 μL) was transferred to a 384-well Opti-plate (PerkinElmer) and 5 μL acceptor mix was added. The plate was centrifuged at 1000 RPM for 1 minute, and incubated in the dark for 2 hours. Following this incubation, 5 μL of donor mix was added, the plate was sealed and centrifuged at 1000 RPM for 1 minute, and the mixture was incubated for 2 hours at room temperature. Signal was read on an Envision plate reader (PerkinElmer) using standard AlphaLISA settings. Analysis of raw data was carried out in Excel (Microsoft) and Prism (GraphPad). Signal was plotted vs. the decadal logarithm of compound concentration, and IC50 was determined by fitting a 4-parameter sigmoidal concentration response model.
# [3] = PC-9 cells (EGFR Ex19Del), 1 hour incubation, AlphaLISA p-ERK1/2
SMILES,IC50 [1],"IC50 [2, 3]","IC50 ([2]; PC-9, 1 h)"
C[C@@H](Nc1nc(Cl)nc2c1CN(C(=O)[C@]13COC[C@H]1CS(=O)(=O)C3)CC2)c1cc(N)cc(C(F)(F)F)c1 [Example 215],> 1000 nM,> 1000 nM,–
COc1c(C(F)F)cccc1C(C)Nc1nc(Cl)nc2c1CN(C(=O)N1CCOCC1)C2 (stereo not shown) [Example 494],> 1000 nM,> 1000 nM,–
"CC(Nc1nc(Cl)nc2c1CN(C(=O)N1CCOCC1)C2)c1cccc(S(N)(=O)=O)c1 (stereo not shown) [Example 535, 3-[1-[[2-chloro-6-(morpholine-4-carbonyl)-5,7-dihydropyrrolo[3,4-d]pyrimidin-4-yl]amino]ethyl]benzenesulfonamide]",> 1000 nM,–,> 1000 nM
CO[C@H]1C[C@H](C(=O)N2CCc3nc(Cl)nc(N[C@H](C)c4cc(N)cc(C(F)(F)F)c4)c3C2)C1 [Example 190],> 1000 nM,> 1000 nM,–
CC(Nc1nc(Cl)nc2c1CN(C(=O)N1CCOCC1)C2)c1cccc(C(F)(F)F)c1Cl (stereo not shown) [Example 498],> 1000 nM,< 1000 nM,–
C[C@@H](Nc1nc(Cl)nc2c1CN(C(=O)C1CC13CCOCC3)CC2)c1cc(N)cc(C(F)(F)F)c1 (stereo partly shown) [Example 197],> 1000 nM,> 1000 nM,–
Cc1c(C(C)Nc2nc(Cl)nc3c2CN(C(=O)N2CCOCC2)C3)cccc1C(F)(F)F (stereo not shown) [Example 499],> 1000 nM,< 1000 nM,–
C[C@@H](Nc1nc(Cl)nc2c1CN(C(=O)C1CCC1)CC2)c1cc(N)cc(C(F)(F)F)c1 [Example 209],> 1000 nM,> 1000 nM,–
COC1(C(=O)N2CCc3nc(Cl)nc(N[C@H](C)c4cc(N)cc(C(F)(F)F)c4)c3C2)CC1 [Example 201],> 1000 nM,> 1000 nM,–
"C[C@@H](Nc1nc(Cl)nc2c1CN(C(=O)N1CCOCC1)C2)c1cnc(C(F)(F)F)s1 [Example 474, 2-chloro-6-(morpholine-4-carbonyl)-N-[(1R)-1-[2-(trifluoromethyl)-1,3-thiazol-5-yl]ethyl]-5H,6H,7H-pyrrolo[3,4-d]pyrimidin-4-amine]",> 1000 nM,> 1000 nM,–
"CC(Nc1nc(Cl)nc2c1CN(C(=O)N1CCOCC1)C2)c1cccc(C2CC2)c1 (stereo not shown) [Example 534, [2-chloro-4-[1-(3-cyclopropylphenyl)ethylamino]-5,7-dihydropyrrolo[3,4-d]pyrimidin-6-yl]-morpholino-methanone]",> 1000 nM,–,> 1000 nM
COC12CCC(C(=O)N3CCc4nc(Cl)nc(N[C@H](C)c5cc(N)cc(C(F)(F)F)c5)c4C3)(CC1)C2 [Example 196],> 1000 nM,> 1000 nM,–
C[C@@H](Nc1nc(Cl)nc2c1CN(C(=O)c1ccc3c(n1)OCCO3)CC2)c1cc(N)cc(C(F)(F)F)c1 [Example 249],> 1000 nM,> 1000 nM,–
"Cc1nc2c(c(N[C@H](C)c3cc(N)cc(C(F)(F)F)c3)n1)CN(CC1CCOC1)C2 (stereo partly drawn) [Example 111, N-[(1R)-1-[3-amino-5-(trifluoromethyl)phenyl]ethyl]-2-methyl-6-(tetrahydrofuran-3-ylmethyl)-5,7-dihydropyrrolo[3,4-d]pyrimidin-4-amine]",> 1000 nM,> 1000 nM,–
COC1CN([C@@H]2CCc3ncnc(N[C@H](C)c4cccc(C(F)F)c4F)c3C2)C1 [Example 443],> 1000 nM,> 1000 nM,–

# The next lines start with results.
IC50 [1],"IC50 [2, 3]",SMILES,"IC50 ([2]; PC-9, 1 h)"
< 1000 nM,< 1000 nM,"CC(Nc1nc(Cl)nc2c1CN(C(=O)N1CCOCC1)C2)c1cccc(C(F)(F)CO)c1Cl (stereo not shown) [Example 506, 2-[2-chloro-3-(1-{[2-chloro-6-(morpholine-4-carbonyl)-5H,6H,7H-pyrrolo[3,4-d]pyrimidin-4-yl]amino}ethyl)phenyl]-2,2-difluoro-ethan-1-ol]",–
> 1000 nM,> 1000 nM,"C[C@@H](Nc1nc(Cl)nc2c1CN([C@H]1CC[C@H](C(=O)N(C)C)CC1)C2)c1cc(N)cc(C(F)(F)F)c1 [Example 57, 4-[4-[[(1R)-1-[3-amino-5-(trifluoromethyl)phenyl]ethyl]amino]-2-chloro-5,7-dihydropyrrolo[3,4-d]pyrimidin-6-yl]-N,N-dimethyl-cyclohexanecarboxamide]",–
< 1000 nM,> 1000 nM,C[C@@H](Nc1nc(O)nc2c1CN(C(=O)N1CCOCC1)C2)c1cc(N)cc(C(F)(F)F)c1 [Example 55],–
< 1000 nM,> 1000 nM,"C[C@@H](Nc1nc(CNC2COC2)nc2c1CN(C(=O)N1CCOCC1)C2)c1cccc(C(F)F)c1F [Example 509, N-[(1R)-1-[3-(difluoromethyl)-2-fluorophenyl]ethyl]-6-(morpholine-4-carbonyl)-2-{[(oxetan-3-yl)amino]methyl}-5H,6H,7H-pyrrolo-[3,4-d]pyrimidin-4-amine]",–
> 1000 nM,> 1000 nM,C[C@@H](Nc1nc(Cl)nc2c1CN(C(=O)C13COC(CCO1)C3)CC2)c1cc(N)cc(C(F)(F)F)c1 (stereo partly shown) [Example 220],–
< 1000 nM,> 1000 nM,C[C@@H](Nc1nc(Cl)nc2c1C[C@H](N1CCOCC1)CC2)c1cccc(C(F)F)c1F [Example 441],–
> 1000 nM,> 1000 nM,COc1ccc(C(=O)N2CCc3nc(Cl)nc(N[C@H](C)c4cc(N)cc(C(F)(F)F)c4)c3C2)nc1 [Example 245],–
> 1000 nM,> 1000 nM,C[C@@H](Nc1nc(Cl)nc2c1CN(C(=O)C13CC(C1)C3)CC2)c1cc(N)cc(C(F)(F)F)c1 [Example 211],–
< 1000 nM,< 1000 nM,"C[C@@H](Nc1ncnc2c1CN(C1CCOCC1)C(=O)N2C)c1cc(N)cc(C(F)(F)F)c1 [Example 176, (R)-5-((1-(3-amino-5-(trifluoromethyl)phenyl)ethyl)amino)-1-methyl-3-(tetrahydro-2H-pyran-4-yl)-3,4-dihydropyrimido[4,5-d]pyrimidin-2(1H)-one]",–
< 1000 nM,> 1000 nM,"C[C@@H](Nc1nc(Cl)nc2c1CN(C(=O)N1CCOCC1)C2)c1cccc(C(F)CO)c1 (stereo partly drawn) [Example 519, [2-chloro-4-[[(1R)-1-[3-(1-fluoro-2-hydroxy-ethyl)phenyl]ethyl]amino]-5,7-dihydropyrrolo[3,4-d]pyrimidin-6-yl]-morpholino-methanone]",–
< 1000 nM,> 1000 nM,COCC1(C(=O)N2CCc3nc(Cl)nc(N[C@H](C)c4cc(N)cc(C(F)(F)F)c4)c3C2)CCC1 [Example 204],–
< 1000 nM,> 1000 nM,"CC(Nc1nc(Cl)nc2c1CN(C(=O)N1CCOCC1)C2)c1cccc(CCO)c1 (stereo not shown) [Example 501, 2-[3-(1-{[2-chloro-6-(morpholine-4-carbonyl)-5H,6H,7H-pyrrolo[3,4-d]pyrimidin-4-yl]amino}ethyl)phenyl]ethan-1-ol]",–
< 1000 nM,> 1000 nM,"C[C@@H](Nc1nc(Cl)nc2c1CN(C(=O)N1CCOCC1)C2)c1cccc(N2CC(O)C2)c1 [Example 518, [2-chloro-4-[[(1R)-1-[3-(3-hydroxyazetidin-1-yl)phenyl]ethyl]amino]-5,7-dihydropyrrolo[3,4-d]pyrimidin-6-yl]-morpholino-methanone]",–
< 1000 nM,< 1000 nM,C[C@@H](Nc1nc(Cl)nc2c1CN(C(=O)N1CCOC(c3cccnc3)C1)C2)c1cc(N)cc(C(F)(F)F)c1 (stereo partly shown) [Example 151],–
< 1000 nM,< 1000 nM,"COCC(F)(F)c1cccc([C@@H](C)Nc2nc(Cl)nc3c2CN(C(=O)C2(OC)CCOCC2)C3)c1 [Example 536, [2-chloro-4-[[(1R)-1-[3-(1,1-difluoro-2-methoxy-ethyl)phenyl]ethyl]amino]-5,7-dihydropyrrolo[3,4-d]pyrimidin-6-yl]-(4-methoxytetrahydropyran-4-yl)methanone]",–
< 1000 nM,< 1000 nM,C[C@@H](Nc1nc(Cl)nc2c1CN(C(=O)C1OCCN(C)C1=O)C2)c1cccc(C(F)F)c1F (stereo partly shown) [Example 301],–
< 1000 nM,> 1000 nM,C[C@@H](Nc1nc(Cl)nc2c1CN(C(=O)[C@H]1[C@@H]3CNC[C@@H]31)C2)c1cc(N)cc(C(F)(F)F)c1 [Example 269],–
